US9878986B2, “Compounds for selective histone deacetylase inhibitors, and pharmaceutical composition comprising the same” (CHONG KUN DANG PHARMACEUTICAL CORP., priority 2013, dated 2018)

Tests used:
HDAC 6 = target: T1, HDAC 6 (Homo sapiens, UniProt Q9UBN7); assay: Test of HDAC activities, HDAC6 (fluorimetric); type: biochemical; set-up: purchased Calbiochem 382180; conditions: samples at 0.1, 1, 10, 100, 1000 nM; 37° C. 60 minutes; fluorescence Ex 390, Em 460; read-out: HDAC inhibitory activities, HDAC6
T1 sequence (Q9UBN7 1-1215): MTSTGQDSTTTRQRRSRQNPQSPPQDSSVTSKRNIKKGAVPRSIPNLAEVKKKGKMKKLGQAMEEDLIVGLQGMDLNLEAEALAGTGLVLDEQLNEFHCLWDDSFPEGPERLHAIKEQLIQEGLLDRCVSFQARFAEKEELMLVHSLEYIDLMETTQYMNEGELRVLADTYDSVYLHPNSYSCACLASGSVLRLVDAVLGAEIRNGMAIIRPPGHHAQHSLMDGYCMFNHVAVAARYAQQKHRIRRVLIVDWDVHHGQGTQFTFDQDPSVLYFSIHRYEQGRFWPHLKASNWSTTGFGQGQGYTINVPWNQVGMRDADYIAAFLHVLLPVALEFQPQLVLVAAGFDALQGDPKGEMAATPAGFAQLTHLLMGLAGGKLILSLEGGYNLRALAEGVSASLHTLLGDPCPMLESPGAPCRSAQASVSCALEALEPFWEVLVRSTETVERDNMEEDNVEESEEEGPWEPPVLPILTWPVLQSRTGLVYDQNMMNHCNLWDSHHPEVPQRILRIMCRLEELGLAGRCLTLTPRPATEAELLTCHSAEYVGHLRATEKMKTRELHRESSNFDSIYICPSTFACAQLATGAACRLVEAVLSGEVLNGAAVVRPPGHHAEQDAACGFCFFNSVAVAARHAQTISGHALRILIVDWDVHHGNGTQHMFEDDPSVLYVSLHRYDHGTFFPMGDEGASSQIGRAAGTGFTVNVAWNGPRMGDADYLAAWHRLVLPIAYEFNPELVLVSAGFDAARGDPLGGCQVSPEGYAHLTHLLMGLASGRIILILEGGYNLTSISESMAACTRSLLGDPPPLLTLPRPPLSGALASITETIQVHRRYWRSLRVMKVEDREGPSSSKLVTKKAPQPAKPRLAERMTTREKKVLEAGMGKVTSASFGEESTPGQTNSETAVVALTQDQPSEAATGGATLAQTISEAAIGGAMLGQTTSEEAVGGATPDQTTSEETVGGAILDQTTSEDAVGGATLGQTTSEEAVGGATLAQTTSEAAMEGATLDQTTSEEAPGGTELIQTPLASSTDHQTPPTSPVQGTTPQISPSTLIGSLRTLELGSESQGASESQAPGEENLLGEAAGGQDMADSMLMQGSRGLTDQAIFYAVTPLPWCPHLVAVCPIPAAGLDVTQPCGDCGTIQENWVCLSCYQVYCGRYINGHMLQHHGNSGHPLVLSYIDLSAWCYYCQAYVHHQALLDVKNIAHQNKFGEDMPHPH
How it was run: (§1)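 HDAC1 tested at 100, 1000 and 10000 nM; recombinant human HDAC6 at 0.1, 1, 10, 100 and 1000 nM. Reaction 60 min at 37° C, then developer for 30 min at 37° C; fluorescence read at Ex 390/Em 460.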

HDAC1 = HDAC1 (Homo sapiens, UniProt Q13547); assay: Test of HDAC activities, HDAC1 Fluorimetric Drug Discovery Assay Kit; type: biochemical; set-up: purchased Enzolifesciences BML-AK511; conditions: samples at 100, 1000, 10000 nM; 37° C. 60 minutes; fluorescence Ex 390, Em 460; read-out: HDAC inhibitory activities, HDAC1
How it was run: as §1

Sequence of HDAC1 (Q13547 whole entry): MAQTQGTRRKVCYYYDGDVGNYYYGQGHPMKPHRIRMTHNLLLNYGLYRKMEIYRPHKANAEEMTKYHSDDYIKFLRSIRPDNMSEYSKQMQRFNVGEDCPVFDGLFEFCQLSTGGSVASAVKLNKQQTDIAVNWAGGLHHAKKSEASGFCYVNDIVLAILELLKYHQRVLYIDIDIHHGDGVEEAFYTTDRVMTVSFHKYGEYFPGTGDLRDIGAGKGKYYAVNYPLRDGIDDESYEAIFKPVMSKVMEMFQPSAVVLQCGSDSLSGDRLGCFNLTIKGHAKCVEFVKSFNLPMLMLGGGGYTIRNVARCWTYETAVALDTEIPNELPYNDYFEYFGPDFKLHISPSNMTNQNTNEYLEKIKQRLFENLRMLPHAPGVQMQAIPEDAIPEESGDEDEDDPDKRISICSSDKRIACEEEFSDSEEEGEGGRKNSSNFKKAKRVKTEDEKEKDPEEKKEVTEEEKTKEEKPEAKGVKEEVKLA

## CC(C)(O)CN1CCC(c2cccc(N(Cc3ccc(C(=O)NO)cc3)C(=O)N3CCOCC3)c2)CC1 [Compound 517, N-(3-(1-(2-hydroxy-2-methylpropyl)piperidine-4-yl)phenyl)-N-(4-(hydroxycarbamoyl)benzyl)morpholine-4-carboxamide]
HDAC 6
  IC50: 28 nM
HDAC1
  IC50: 427 nM

## CC(C)(F)CN1CCC(c2cccc(N(Cc3ccc(C(=O)NO)cc3)C(=O)N3CCOCC3)c2)CC1 [Compound 518, N-(3-(1-(2-fluoro-2-methylpropyl)piperidine-4-yl)phenyl)-N-(4-(hydroxycarbamoyl)benzyl)morpholine-4-carboxamide]
HDAC 6
  IC50: 14 nM
HDAC1
  IC50: 495 nM

## O=C(NO)c1ccc(CN(C(=O)N2CC[C@@H](F)C2)c2ccc(C(F)(F)F)cc2)cc1 [Compound 520, (R)-3-fluoro-N-(4-(hydroxycarbamoyl)benzyl)-N-(4-(trifluoromethyl)phenyl)pyrrolidine-1-carboxamide]
HDAC 6
  IC50: 36 nM
HDAC1
  IC50: 1170 nM

## O=C(NO)c1ccc(CN(C(=O)N2CC[C@H](F)C2)c2ccc(C(F)(F)F)cc2)cc1 [Compound 521, (S)-3-fluoro-N-(4-(hydroxycarbamoyl)benzyl)-N-(4-(trifluoromethyl)phenyl)pyrrolidine-1-carboxamide]
HDAC 6
  IC50: 10 nM
HDAC1
  IC50: 261 nM

## O=C(NO)c1ccc(CN(C(=O)N2CCC[C@@H]2CO)c2ccc(C(F)(F)F)cc2)cc1 [Compound 522, (R)—N-(4-(hydroxycarbamoyl)benzyl)-2-(hydroxymethyl)-N-(4-(trifluoromethyl)phenyl)pyrrolidine-1-carboxamide]
HDAC 6
  IC50: 11 nM
HDAC1
  IC50: 177 nM

## CC(=O)N1CCN(C(=O)N(Cc2ccc(C(=O)NO)cc2)c2cccc(F)c2)CC1 [Compound 529, 4-acetyl-N-(3-fluorophenyl)-N-(4-(hydroxycarbamoyl)benzyl)piperazine-1-carboxamide]
HDAC 6
  IC50: 2 nM
HDAC1
  IC50: 574 nM

## O=C(NO)c1ccc(CN(C(=O)N2CCOCC2)c2cccc(F)c2)cc1 [Compound 530, N-(3-fluorophenyl)-N-(4-(hydroxycarbamoyl)benzyl)morpholine-4-carboxamide]
HDAC 6
  IC50: 1.4 nM
HDAC1
  IC50: 161 nM

## CC(C)(F)CN1CCN(C(=O)N(Cc2ccc(C(=O)NO)cc2)c2cccc(C(F)(F)F)c2)CC1 [Compound 531, 4-(2-fluoro-2-methylpropyl)-N-(4-(hydroxycarbamoyl)benzyl)-N-(3-(trifluoromethyl)phenyl)piperazine-1-carboxamide]
HDAC 6
  IC50: 5.1 nM
HDAC1
  IC50: 1820 nM

## O=C(NO)c1ccc(CN(C(=O)N2CCOCC2)c2cccc(C(F)(F)F)c2)c(F)c1 [Compound 532, N-(2-fluoro-4-(hydroxycarbamoyl)benzyl)-N-(3-(trifluoromethyl)phenyl)morpholine-4-carboxamide]
HDAC 6
  IC50: 1.9 nM
HDAC1
  IC50: 577 nM

## O=C(NO)c1ccc(CN(C(=O)N2CCOCC2)c2ccc(Cl)cn2)cc1 [Compound 533, N-(5-chloropyridin-2-yl)-N-(4-(hydroxycarbamoyl)benzyl)morpholine-4-carboxamide]
HDAC 6
  IC50: 4.5 nM
HDAC1
  IC50: 1890 nM

## O=C(NO)c1ccc(CN(C(=O)N2CCN(CCN3CCOCC3)CC2)c2ccc(C(F)(F)F)cc2)cc1 [Compound 543, N-(4-(hydroxycarbamoyl)benzyl)-4-(2-morpholinoethyl)-N-(4-(trifluoromethyl)phenyl)piperazine-1-carboxamide]
HDAC 6
  IC50: 9 nM
HDAC1
  IC50: 447 nM

## O=C(NO)c1ccc(CN(C(=O)N2CCN(c3ccncc3)CC2)c2ccc(C(F)(F)F)cc2)cc1 [Compound 544, N-(4-(hydroxycarbamoyl)benzyl)-4-(pyridin-4-yl)-N-(4-(trifluoromethyl)phenyl)piperazine-1-carboxamide]
HDAC 6
  IC50: 21 nM
HDAC1
  IC50: 503 nM

## O=C(NO)c1ccc(CN(C(=O)N2CCN(CC(=O)N3CCOCC3)CC2)c2ccc(C(F)(F)F)cc2)cc1 [Compound 545, N-(4-(hydroxycarbamoyl)benzyl)-4-(2-morpholino-2-oxoethyl)-N-(4-(trifluoromethyl)phenyl)piperazine-1-carboxamide]
HDAC 6
  IC50: 17 nM
HDAC1
  IC50: 545 nM
